Assay results reported in ChEMBL document CHEMBL1201862, “PubChem BioAssay data set” (2004).
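Tested at 5 concentrations; 48 h exposure; 96-well plates; endpoints linearly interpolated, else capped at highest concentration. GI50 = concentration required for 50% inhibition of growth.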 Calls of active or inactive are those of the source. No stated cut-off is given here; in the data, active = GI50 up to about 1.1 µM and inactive = higher.

How the values were obtained:
Experiment in all cases: growth of human tumour cells (NCI), 48 h
[1] = tested on: 786-0
[2] = tested on: A498
[3] = tested on: A549
[4] = tested on: ACHN
[5] = tested on: BT-549
[6] = tested on: CAKI-1
[7] = tested on: CCRF-CEM
[8] = tested on: COLO 205
[9] = tested on: DU-145
[10] = tested on: EKVX
[11] = tested on: HCC 2998
[12] = tested on: HCT-116
[13] = tested on: HCT-15
[14] = tested on: HL-60
[15] = tested on: HOP-62
[16] = tested on: HOP-92
[17] = tested on: HT-29
[18] = tested on: Hs-578T
[19] = tested on: IGROV-1
[20] = tested on: K562
[21] = tested on: KM12
[22] = tested on: LOX IMVI
[23] = tested on: M14
[24] = tested on: MCF7
[25] = tested on: MDA-MB-435
[26] = tested on: MDA-N
[27] = tested on: MOLT-4
[28] = tested on: Malme-3M
[29] = tested on: NCI-H23
[30] = tested on: NCI-H460
[31] = tested on: NCI-H522
[32] = tested on: NCI/ADR-RES
[33] = tested on: OVCAR-3
[34] = tested on: OVCAR-4
[35] = tested on: OVCAR-5
[36] = tested on: OVCAR-8
[37] = tested on: PC-3
[38] = tested on: RPMI-8226
[39] = tested on: RXF 393
[40] = tested on: SF-268
[41] = tested on: SF-295
[42] = tested on: SF-539
[43] = tested on: SK-MEL-28
[44] = tested on: SK-MEL-2
[45] = tested on: SK-MEL-5
[46] = tested on: SN12C
[47] = tested on: SNB-19
[48] = tested on: SNB-75
[49] = tested on: SR
[50] = tested on: SW-620
[51] = tested on: T47D
[52] = tested on: TK-10
[53] = tested on: U-251
[54] = tested on: UACC-257
[55] = tested on: UACC-62
[56] = tested on: UO-31

Measured: GI50

CC[C@@]1(C)CCC2c3ccc(O)cc3CC[C@H]2C1C (stereo partly specified)
inactive: [1] 16.2 µM | [2] 19.6 µM | [3] 17.9 µM | [4] 18.2 µM | [5] 19 µM | [6] 21.2 µM | [7] 16.5 µM | [8] 17 µM | [9] 16.6 µM | [10] 18.2 µM | [11] 13.7 µM | [12] 17.7 µM | [14] 10.8 µM | [15] 18.7 µM | [16] 6.85 µM | [17] 18 µM | [18] 18.8 µM | [19] 20.8 µM | [20] 8.75 µM | [21] 15.8 µM | [22] 17 µM | [23] 15.7 µM | [24] 15.1 µM | [25] 15.6 µM | [26] 13.1 µM | [27] 14.8 µM | [28] 16.6 µM | [29] 18 µM | [30] 22.7 µM | [31] 19.3 µM | [32] 18.8 µM | [33] 20.6 µM | [34] 19.4 µM | [35] 18.8 µM | [36] 17.7 µM | [37] 19.8 µM | [38] 19.4 µM | [39] 13 µM | [40] 15.5 µM | [41] 18.8 µM | [42] 19.9 µM | [43] 17.8 µM | [44] 18.6 µM | [45] 16.9 µM | [46] 18.1 µM | [47] 17.5 µM | [48] 19.9 µM | [49] 14.3 µM | [50] 17 µM | [51] 18.1 µM | [52] 19.1 µM | [53] 17 µM | [54] 15.7 µM | [55] 14.7 µM | [56] 16.7 µM
16 µM: [13]
